According to patent publication US12662469B2 (SIRONAX LTD, priority 2018, dated 2026):
Read-outs that look alike come from different tables or passages of the source.

Experiments:
Cell Necrosis = assay: Cell necrosis assay / cell viability assay (necrosis inhibitor activity); type: cell-based
Human RIP1 kinase = molecular target: T1, Human RIP1 kinase (Homo sapiens, UniProt Q13546); assay: Human RIP1 kinase assay; type: biochemical; settings: representative, exemplary data
T1 sequence (Q13546 1-671): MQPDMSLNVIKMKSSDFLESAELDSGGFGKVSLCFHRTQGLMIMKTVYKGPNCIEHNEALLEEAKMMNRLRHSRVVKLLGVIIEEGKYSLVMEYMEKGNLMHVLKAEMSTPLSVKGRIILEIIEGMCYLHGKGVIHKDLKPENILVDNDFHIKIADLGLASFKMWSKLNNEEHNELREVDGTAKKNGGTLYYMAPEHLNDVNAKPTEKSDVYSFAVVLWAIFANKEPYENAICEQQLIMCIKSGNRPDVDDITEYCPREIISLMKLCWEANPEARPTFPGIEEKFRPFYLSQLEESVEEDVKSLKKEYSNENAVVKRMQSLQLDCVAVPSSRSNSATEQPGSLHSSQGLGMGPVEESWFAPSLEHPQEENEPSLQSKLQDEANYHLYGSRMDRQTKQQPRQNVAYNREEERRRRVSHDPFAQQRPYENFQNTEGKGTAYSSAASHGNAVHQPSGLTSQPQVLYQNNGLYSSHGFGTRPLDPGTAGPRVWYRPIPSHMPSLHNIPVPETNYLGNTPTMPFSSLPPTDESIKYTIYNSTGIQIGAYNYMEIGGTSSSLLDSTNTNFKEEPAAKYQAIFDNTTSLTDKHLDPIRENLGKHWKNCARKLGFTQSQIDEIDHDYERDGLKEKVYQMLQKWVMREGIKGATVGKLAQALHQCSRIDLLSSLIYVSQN

[1] = necrosis inhibitor activity, EC data for 14-191 extrapolated, read-out: EC50
[2] = representative, exemplary data, read-out: Cell viability assay, EC50

IC50 (Human RIP1 kinase) [nM] | Compound | EC50 (Cell Necrosis; [1]) [nM] | EC50 (Cell Necrosis; [2]) [nM] | EC50 (Cell Necrosis; necrosis inhibitor activity, compounds outside 14-191, read-out: EC50) [nM]
< 100 | O=C(N1CC[C@@H](Oc2ccccc2)C1)N1N=CCC1c1ccccc1 (single isomer, unassigned) [Compound 26A] | 1 to 1000 | 1 to 1000 | –
> 1000 | O=C(N1CC[C@@H](Oc2ccccc2)C1)N1N=CCC1c1ccccc1 (single isomer, unassigned) [Compound 26B] | 1000 to 10000 | > 1000 | –

Second part, the compound before the results:

Compound | IC50 (Human RIP1 kinase) [nM] | EC50 (Cell Necrosis; [1]) [nM] | EC50 (Cell Necrosis; [2]) [nM] | EC50 (Cell Necrosis; necrosis inhibitor activity, compounds outside 14-191, read-out: EC50) [nM]
O=C(N1CCC1)N1N=CCC1c1ccccc1 (stereo not drawn) [Compound 1, azetidin-1-yl(5-phenyl-4,5-dihydro-1H-pyrazol-1-yl)methanone] | ~1000 | – | 1 to 10000 | 1000 to 10000
O=C(NC1Cc2ccccc2C1)N1N=CCC1c1ccccc1 (stereo not drawn) [Compound 14, N-(2,3-dihydro-H-inden-2-yl)-5-phenyl-4,5-dihydro-1H-pyrazole-1-carboxamide] | 100 to 1000 | 1 to 1000 | 1 to 1000 | –
O=C(N1CC(Cc2cccc(F)c2)C1)N1N=CCC1c1ccccc1 (stereo not drawn) [Compound 41, (3-(3-fluorobenzyl)azetidin-1-yl)(5-phenyl-4,5-dihydro-1H-pyrazol-1-yl)methanone] | < 100 | 1 to 1000 | 1 to 100 | –
O=C(N1CC(Oc2ccc(F)cc2F)C1)N1N=CCC1c1cc(F)cc(F)c1 (stereo not drawn) [Compound 76, (3-(2,4-difluorophenoxy)azetidin-1-yl)(5-(3,5-difluorophenyl)-4,5-dihydro-1H-pyrazol-1-yl)methanone] | < 100 | 1 to 1000 | 1 to 100 | –
O=C(N1CC(Oc2ccc(F)cc2F)C1)N1OCC[C@H]1c1ccccc1 [Compound 80, (S)-(3-(2,4-difluorophenoxy)azetidin-1-yl)(3-phenylisoxazolidin-2-yl)methanone] | < 100 | 1 to 1000 | 1 to 100 | –
NC(=O)c1csc(OC2CN(C(=O)N3N=CCC3c3cc(F)cc(F)c3)C2)n1 (stereo not drawn) [Compound 132, 2-((1-(5-(3,5-difluorophenyl)-4,5-dihydro-1H-pyrazole-1-carbonyl)azetidin-3-yl)oxy)thiazole-4-carboxamide] | < 100 | 1 to 1000 | 1 to 100 | –
